{"source": "ChEMBL document CHEMBL3430912", "about": "“GSK Tres Cantos Anti-Kinetoplastid Screening (TCAKS) Data”", "key": {"Leishmania donovani [1]": {"test_system": "Leishmania donovani", "assay": "(§1) GSK_TCAKS: pIC50 Leishmania donovani Imaging: Infected Macrophages. Assay plates (384-well) were prepared by adding 250nL of compound to each well. For single shot assay, the final compound concentration was 5 uM. […] Automated image analysis was performed with a script developed on Acapella High Content Imaging and Analysis Software (PerkinElmer). Output: Percent of infected macrophage cells were reported for each well.", "type": "functional, organism-based, Homo sapiens", "conditions": "THP-1"}, "Trypanosoma cruzi [2]": {"test_system": "Trypanosoma cruzi", "assay": "GSK_TCAKS: pIC50 Trypanosoma cruzi viability assay using beta-GAL activity. This assay was run at single shot at 5uM compound concentration per well. The biological reagents consisted of NIH-3T3 host cells and trypomastigotes parasitic cells; both cell types were set to a 3.3 * 10^5 cells/mL dilution in assay DMEM by means of a CASY cell counter device using a 60um capillary. 6 uL of the mixture were dispensed per well (about 1 * 10^3 host-cells and 1 * 10^3 parasites) with a Multidrop Combi dispenser. […] In all wells, the percentage of DMSO never exceeded 0.5%. Plates incubated for four days at 37C, 5% CO2. The substrate used for the assay fluorescence intensity (FLINT) readout was resorufin-beta-D-galactopiranoside (Sigma-Aldrich) at 5uM per well. It was diluted in PBS supplemented with the soft detergent Igepal (Fluka).", "type": "functional, organism-based, Mus musculus", "conditions": "Tulahuen, NIH3T3"}, "Trypanosoma cruzi [3]": {"test_system": "Trypanosoma cruzi", "assay": "GSK_TCAKS: pIC50 Trypanosoma cruzi Imaging: Amastigotes/Cell. […] Cells were then washed once with PBS before infection. T. cruzi trypomastigotes, collected at days 5 to 8 after infection from LLC-MK2 parasite infected cultures, were allowed to swim out for 4h at 37C from a centrifuged pellet (2,500 rpm/10 min/room temperature). Trypomastigotes were then collected and counted in a CASY Cell Counter. Trypomastigotes, in supplemented DMEM, were added to H9c2 cultures in a multiplicity of infection of 1 and incubated for 18 h. Cells were washed once with PBS before incubation of the infected H9c2 monolayer with trypsin (Life-Technologies) to detach cells from the flask. Cells were counted in a CASY Cell Counter using a 150 um capillary and their density set at 5 * 10^4 cells per mL in supplemented assay DMEM. Infected H9c2 were dispensed into 384-well poly-lysine coated assay plates at 50uL per well using a Multidrop Combi dispenser. After seeding them, the plates were incubated at 37C, 5% CO2 for 72h. Cultures were then fixed and stained by addition of 50 uL of a solution containing 8% formaldehyde and 4 uM DRAQ5 DNA dye (BioStatus, UK) per well. […] Five images were collected per well for reliable statistical analysis. Automated image analysis was performed with a script developed on Acapella High Content Imaging and Analysis Software (PerkinElmer). Output: number of amastigotes per cell as infection level measurement.", "type": "functional, organism-based, Rattus norvegicus", "conditions": "H9c2, 4 h"}, "NIH3T3": {"test_system": "NIH3T3", "assay": "GSK_TCAKS: pIC50 NIH 3T3 cell line viability assay using luminiscence. Tissue culture surface treated assay plates (1536-well) were used. […] The 100% cells survival control was determined exposing the host-cells to a 0.5% DMSO concentration, whereas the 100% toxicity control was achieved by seeding the cells in presence of Amphotericin B at 50uM. Plates were incubated for four days at 37C, 5% CO2. The assay readout was developed by addition of 5uL of CellTiter-Glo Reagent following the manufacturer's instructions. Luminiscence was measured using a ViewLux.", "type": "functional, cell-based", "conditions": "Mus musculus, NIH3T3, 96 h"}, "Leishmania donovani [4]": {"test_system": "Leishmania donovani", "assay": "as §1, with “Amastigotes/Macrophages.” for “Infected Macrophages.”, “Average number” for “Percent”, “amastigotes per” for “infected”, “cell” for “cells”", "type": "functional, organism-based, Homo sapiens", "conditions": "THP-1"}, "Leishmania donovani [5]": {"test_system": "Leishmania donovani", "assay": "as §1, with “THP-1 Host” for “Infected”, “THP-1 cell count” for “Percent of infected macrophage cells”", "type": "functional, organism-based, Homo sapiens"}, "[6]": {"test_system": "Trypanosoma brucei brucei", "assay": "GSK_TCAKS: pIC50 Trypanosoma brucei viability assay using luminiscence. Assay plates (1536-well) were prepared. T. brucei cultures were harvested and counted in a CASY cell counter. A parasite suspension was prepared at a final concentration of 5 * 10^4 cells/mL in complete HMI9 medium and 6uL was dispensed to all wells containing compounds using a Multidrop Combi dispenser. 6uL of HMI9 media with 0.4% DMSO were dispensed to control columns. Plates were incubated for 24 h at 37C, 5% CO2 then tempered for 10 min at room temperature. ATP content was quantified by adding 4 uL of CellTiter-Glo Reagent (Promega) according to the manufacturer's instructions. Luminescence was measured using a ViewLux.", "type": "functional, organism-based", "conditions": "Lister 427, CASY"}, "Leishmania donovani [7]": {"test_system": "Leishmania donovani", "assay": "GSK_TCAKS: pIC50 Leishmania donovani viability assay using fluorescence intensity. Assay plates (1536-well) were prepared by adding 30nL per well of compound. For single shot assay, the final compound concentration was 5uM. […] Briefly, eGFP LdBOB axenic amastigotes were harvested, fixed and counted in a CASY cell counter (Roche-Applied Science). A final concentration of 1.5 * 10^5 cells per well were prepared in amastigote media containing 500 U/mL penicillin/streptomycin (Invitrogen) and 6uL was dispensed to each experimental well using a Multidrop Combi dispenser (Thermo Scientific). 6uL of assay media was dispensed to control columns used as reference for 100% compound response. Following incubation for 72 h at 37C, 5% CO2, 2 uL of resazurin was added to each well at a final concentration of 0.5 mM in phosphate buffered saline (PBS) with IGEPAL (Sigma-Aldrich), 0.05% (v/v).", "type": "functional, organism-based"}, "Trypanosoma cruzi [8]": {"test_system": "Trypanosoma cruzi", "assay": "(§2) GSK_TCAKS: pIC50 Trypanosoma cruzi Imaging: Infected Cells. […] Cells were then washed once with PBS before infection. T. cruzi trypomastigotes, collected at days 5 to 8 after infection from LLC-MK2 parasite infected cultures, were allowed to swim out for 4h at 37C from a centrifuged pellet (2,500 rpm/10 min/room temperature). Trypomastigotes were then collected and counted in a CASY Cell Counter. Trypomastigotes, in supplemented DMEM, were added to H9c2 cultures in a multiplicity of infection of 1 and incubated for 18 h. Cells were washed once with PBS before incubation of the infected H9c2 monolayer with trypsin (Life-Technologies) to detach cells from the flask. Cells were counted in a CASY Cell Counter using a 150 um capillary and their density set at 5 * 10^4 cells per mL in supplemented assay DMEM. Infected H9c2 were dispensed into 384-well poly-lysine coated assay plates at 50uL per well using a Multidrop Combi dispenser. After seeding them, the plates were incubated at 37C, 5% CO2 for 72h. Cultures were then fixed and stained by addition of 50 uL of a solution containing 8% formaldehyde and 4 uM DRAQ5 DNA dye (BioStatus, UK) per well. […] Five images were collected per well for reliable statistical analysis. Automated image analysis was performed with a script developed on Acapella High Content Imaging and Analysis Software (PerkinElmer). Output: percentage of infected cells per well as a second infection marker.", "type": "functional, organism-based, Rattus norvegicus", "conditions": "H9c2, 4 h"}, "[9]": {"test_system": "Trypanosoma brucei brucei", "assay": "GSK_TCAKS: pIC50 Trypanosoma brucei viability assay using fluorescence intensity. Assay plates (1536-well) were prepared by dispensing 25nL of compound solution per well using an Echo acoustic dispenser (Labcyte).", "type": "functional, organism-based", "conditions": "Lister 427, 2 h"}, "[10]": {"target": "Sterol 14-alpha demethylase (Trypanosoma cruzi (strain CL Brener), UniProt Q7Z1V1)", "sequence (Q7Z1V1 whole entry)": "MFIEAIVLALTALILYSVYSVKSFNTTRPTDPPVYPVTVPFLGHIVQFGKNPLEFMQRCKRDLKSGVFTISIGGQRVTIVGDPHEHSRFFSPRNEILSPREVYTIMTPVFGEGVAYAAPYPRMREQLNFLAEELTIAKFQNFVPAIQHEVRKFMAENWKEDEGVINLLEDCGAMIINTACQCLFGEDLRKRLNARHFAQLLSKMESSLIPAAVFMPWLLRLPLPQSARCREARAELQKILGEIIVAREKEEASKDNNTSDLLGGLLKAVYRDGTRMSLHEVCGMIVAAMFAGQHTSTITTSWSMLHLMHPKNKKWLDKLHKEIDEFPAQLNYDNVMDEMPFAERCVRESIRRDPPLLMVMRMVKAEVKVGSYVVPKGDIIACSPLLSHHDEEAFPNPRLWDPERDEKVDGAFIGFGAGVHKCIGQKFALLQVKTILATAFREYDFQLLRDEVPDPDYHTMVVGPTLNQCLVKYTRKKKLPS", "assay": "GSK_TCAKS: pIC50 CYP51 from Trypanosoma cruzi.", "type": "functional"}, "[11]": {"assay": "GSK_TCAKS: pIC50 HepG2 human cell line viability assay using luminiscence. […] Seeding density was checked to ensure that new mono-layers were not more than 50% confluent at the time of harvesting. Cell suspension was added to 500 mL of the same medium at a final density of 1.2 * 10^5 cells/mL. This cell suspension was dispensed (25 uL, 3000 cells per well) into 384-well clear-bottom plates using a Multidrop Combi dispenser. Prior to addition of the cell suspension, the screening compounds (250 nL) were pre-dispensed into the plates with an Echo liquid handler. Plates were incubated for 48 h at 37C, 5% CO2. After incubation, plates equilibrated at room temperature for 30 min before proceeding to develop the luminescent signal. The signal developer, CellTiter-Glo Reagent, was allowed to equilibrate at room temperature for 30 min and added to the plates (25uL per well) using a Multidrop Combi dispenser. Plates were left for 10 min at room temperature for stabilization and then read using a ViewLux.", "type": "toxicity, cell-based"}, "Trypanosoma cruzi [12]": {"test_system": "Trypanosoma cruzi", "assay": "as §2, with “H2C9” for “Trypanosoma cruzi”, “H9c2 Host Cardiomyocytes.” for “Infected Cells.”, “Number” for “percentage”, “H9c2 Host Cardiomyocytes nuclei to determine drug-related cytotoxicity.” for “infected cells per well as a second infection marker.”", "type": "functional, organism-based, Rattus norvegicus", "conditions": "H9c2, 4 h"}}}
{"smiles": "O=c1[nH]cnc2c([C@@H]3O[C@H](CO)[C@@H](O)[C@H]3O)n[nH]c12", "note": "[FORMYCIN B]", "values": [{"measurement": "IC50", "setting": "Leishmania donovani [1]", "result": 2000, "unit": "nM"}, {"measurement": "IC50", "setting": "Trypanosoma cruzi [2]", "result": 141, "unit": "nM"}, {"measurement": "IC50", "setting": "Trypanosoma cruzi [3]", "result": 316, "unit": "nM"}, {"measurement": "IC50", "setting": "NIH3T3", "result": "> 50100", "unit": "nM"}, {"measurement": "IC50", "setting": "Leishmania donovani [4]", "result": 398, "unit": "nM"}, {"measurement": "IC50", "setting": "Leishmania donovani [5]", "result": "> 50100", "unit": "nM"}, {"measurement": "IC50", "setting": "[6]", "result": 5.01, "unit": "nM"}, {"measurement": "IC50", "setting": "Leishmania donovani [7]", "result": 398, "unit": "nM"}, {"measurement": "IC50", "setting": "Trypanosoma cruzi [8]", "result": 501, "unit": "nM"}, {"measurement": "IC50", "setting": "[9]", "result": 3.16, "unit": "nM"}, {"measurement": "IC50", "setting": "[10]", "result": "> 100000", "unit": "nM"}, {"measurement": "IC50 at 48 h", "setting": "[11]", "result": "> 100000", "unit": "nM"}, {"measurement": "IC50", "setting": "Trypanosoma cruzi [12]", "result": "> 50100", "unit": "nM"}]}
{"smiles": "CC(C)(C)C(O)(CCc1ccc(Cl)cc1)Cn1cncn1", "note": "(stereo unspecified) [TEBUCONAZOLE]", "values": [{"measurement": "IC50", "setting": "Leishmania donovani [1]", "result": "> 50100", "unit": "nM"}, {"measurement": "IC50", "setting": "Trypanosoma cruzi [2]", "result": 126, "unit": "nM"}, {"measurement": "IC50", "setting": "Trypanosoma cruzi [3]", "result": 200, "unit": "nM"}, {"measurement": "IC50", "setting": "NIH3T3", "result": "> 50100", "unit": "nM"}, {"measurement": "IC50", "setting": "Leishmania donovani [4]", "result": "> 50100", "unit": "nM"}, {"measurement": "IC50", "setting": "Leishmania donovani [5]", "result": "> 50100", "unit": "nM"}, {"measurement": "IC50", "setting": "[6]", "result": "> 39800", "unit": "nM"}, {"measurement": "IC50", "setting": "Leishmania donovani [7]", "result": 3160, "unit": "nM"}, {"measurement": "IC50", "setting": "Trypanosoma cruzi [8]", "result": 251, "unit": "nM"}, {"measurement": "IC50", "setting": "[9]", "result": "> 39800", "unit": "nM"}, {"measurement": "IC50", "setting": "[10]", "result": 126, "unit": "nM"}, {"measurement": "IC50 at 48 h", "setting": "[11]", "result": "> 100000", "unit": "nM"}, {"measurement": "IC50", "setting": "Trypanosoma cruzi [12]", "result": "> 50100", "unit": "nM"}]}
